What all share (experiment): relative viability (nuclei count vs DMSO), 5 days (fraction); higher = more cells survive
Compound in assay [1]: CC1=CC(=NN1)NC2=CC(=NC(=N2)/C=C/C3=CC=CC=C3)N4CCN(CC4)C + C[C@]1(O)C[C@@H](c2nc(-c3ccc4ccc(-c5ccccc5)nc4c3)c3c(N)nccn32)C1 [Linsitinib] (partner 1 µM)
The method in brief:
(§1)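 Nuclei were stained with Hoechst during a one-step fixation (final 0.05% Triton X-100, 1% formaldehyde, 1 ug/ml Hoechst) carried out 5 days after dosing, then counted on 4× images. The cells, lung cancer lines in 1536-well plates, had been dosed by pin tool the day after seeding with one drug alone or a fixed anchor-drug dose plus five library-drug doses (not always all listed) in √10 steps. Relative viability is the nuclei count in treated wells divided by that in vehicle wells, and each value is the median of duplicate plates.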

Compound in the assay “Obatoclax + Dasatinib”: COC1=CC(c2cc3ccccc3[nH]2)=N/C1=C\c1[nH]c(C)cc1C [Obatoclax] + Cc1nc(Nc2ncc(C(=O)Nc3c(C)cccc3Cl)s2)cc(N2CCN(CCO)CC2)n1 [Dasatinib] (partner 0.075 µM)
The method, boiled down:
as §1

Compound in the assay “Obatoclax + Foretinib”: COC1=CC(c2cc3ccccc3[nH]2)=N/C1=C\c1[nH]c(C)cc1C [Obatoclax] + COc1cc2c(Oc3ccc(NC(=O)C4(C(=O)Nc5ccc(F)cc5)CC4)cc3F)ccnc2cc1OCCCN1CCOCC1 [Foretinib] (partner 0.25 µM)
The method in brief: as §1

Compound in the assay “Obatoclax + Phenformin”: COC1=CC(c2cc3ccccc3[nH]2)=N/C1=C\c1[nH]c(C)cc1C [Obatoclax] + N=C(N)NC(=N)NCCc1ccccc1 [Phenformin] (partner 250 µM)
The method, boiled down: as §1

Regarding BEN, the relative viability was 0.953 in assay [1] (first compound 0.08 µM); 0.955 in assay [1] (first compound 0.253 µM); 0.96 in assay [1] (first compound 0.8 µM); 0.76 in assay [1] (first compound 2.53 µM); 0.194 in assay [1] (first compound 8 µM); 0.321 with Obatoclax + Dasatinib (first compound 0.01 µM). The relative viability with Obatoclax + Dasatinib (first compound 0.03162 µM) turned out to be 0.312; in the assay with Obatoclax + Dasatinib (first compound 0.3162 µM), 0.41; with Obatoclax + Dasatinib (first compound 1 µM), 0.272; with Obatoclax + Foretinib (first compound 0.01 µM) it was 0.864; with Obatoclax + Foretinib (first compound 0.03162 µM) it was 0.614; with Obatoclax + Foretinib (first compound 0.3162 µM), 0.631. Also, the relative viability is 0.678 in the assay with Obatoclax + Foretinib (first compound 1 µM); 0.287 in the assay with Obatoclax + Phenformin (first compound 0.01 µM); 0.224 in the assay with Obatoclax + Phenformin (first compound 0.03162 µM); 0.286 with Obatoclax + Phenformin (first compound 0.3162 µM); 0.277 with Obatoclax + Phenformin (first compound 1 µM).

Regarding CAL-12T, the relative viability in assay [1] (first compound 0.08 µM) came out at 0.756; in assay [1] (first compound 0.253 µM), 0.69; in assay [1] (first compound 0.8 µM), 0.979; in assay [1] (first compound 2.53 µM), 0.49; in assay [1] (first compound 8 µM), 0.214; with Obatoclax + Dasatinib (first compound 0.01 µM), 0.419. Further, the relative viability in the assay with Obatoclax + Dasatinib (first compound 0.03162 µM) is 0.414; with Obatoclax + Dasatinib (first compound 0.1 µM) it was 0.426; with Obatoclax + Dasatinib (first compound 0.3162 µM), 0.0751; with Obatoclax + Dasatinib (first compound 1 µM) it was 0.0688; with Obatoclax + Foretinib (first compound 0.01 µM) it was 1.11; with Obatoclax + Foretinib (first compound 0.03162 µM) it was 1.16. Besides, the relative viability with Obatoclax + Foretinib (first compound 0.1 µM) was found to be 1.09; with Obatoclax + Foretinib (first compound 0.3162 µM), 0.343; in the assay with Obatoclax + Foretinib (first compound 1 µM), 0.134; with Obatoclax + Phenformin (first compound 0.01 µM), 0.552; with Obatoclax + Phenformin (first compound 0.03162 µM) it was 0.612; with Obatoclax + Phenformin (first compound 0.1 µM) it was 0.538. The relative viability in the assay with Obatoclax + Phenformin (first compound 0.3162 µM) turned out to be 0.155; with Obatoclax + Phenformin (first compound 1 µM), 0.102.

As for COR-L23, the relative viability in assay [1] (first compound 0.08 µM) was determined as 0.868; in assay [1] (first compound 0.253 µM), 0.809; in assay [1] (first compound 0.8 µM) it was 0.839; in assay [1] (first compound 2.53 µM), 0.173; in assay [1] (first compound 8 µM) it was 0.0756; with Obatoclax + Dasatinib (first compound 0.01 µM) it was 0.494. The relative viability with Obatoclax + Dasatinib (first compound 0.03162 µM) turned out to be 0.488; in the assay with Obatoclax + Dasatinib (first compound 0.1 µM), 0.416; in the assay with Obatoclax + Dasatinib (first compound 0.3162 µM), 0.285; in the assay with Obatoclax + Dasatinib (first compound 1 µM), 0.163; with Obatoclax + Foretinib (first compound 0.01 µM), 0.878; in the assay with Obatoclax + Foretinib (first compound 0.03162 µM) it was 1.05. Moreover, the relative viability was 0.927 with Obatoclax + Foretinib (first compound 0.1 µM); 0.51 in the assay with Obatoclax + Foretinib (first compound 0.3162 µM); 0.323 with Obatoclax + Foretinib (first compound 1 µM); 0.443 with Obatoclax + Phenformin (first compound 0.01 µM); 0.479 in the assay with Obatoclax + Phenformin (first compound 0.03162 µM); 0.425 with Obatoclax + Phenformin (first compound 0.1 µM). Besides, the figures for the relative viability with Obatoclax + Phenformin (first compound 0.3162 µM) and with Obatoclax + Phenformin (first compound 1 µM) were 0.328 and 0.216, respectively.

Regarding COR-L 105, the relative viability in assay [1] (first compound 0.08 µM) came to 0.815; in assay [1] (first compound 0.253 µM), 1.08; in assay [1] (first compound 0.8 µM), 1.01; in assay [1] (first compound 2.53 µM), 0.331; in assay [1] (first compound 8 µM), 0.192; with Obatoclax + Dasatinib (first compound 0.01 µM), 0.4. Further, the relative viability with Obatoclax + Dasatinib (first compound 0.03162 µM) came to 0.358; with Obatoclax + Dasatinib (first compound 0.1 µM) it was 0.372; in the assay with Obatoclax + Dasatinib (first compound 0.3162 µM), 0.265; with Obatoclax + Dasatinib (first compound 1 µM), 0.246; with Obatoclax + Foretinib (first compound 0.01 µM) it was 1.01; with Obatoclax + Foretinib (first compound 0.03162 µM), 1.19. Moreover, the relative viability came out at 1.05 with Obatoclax + Foretinib (first compound 0.1 µM); 0.534 in the assay with Obatoclax + Foretinib (first compound 0.3162 µM); 0.454 in the assay with Obatoclax + Foretinib (first compound 1 µM); 0.4 with Obatoclax + Phenformin (first compound 0.01 µM); 0.53 in the assay with Obatoclax + Phenformin (first compound 0.03162 µM); 0.637 in the assay with Obatoclax + Phenformin (first compound 0.1 µM). Besides, the relative viability with Obatoclax + Phenformin (first compound 0.3162 µM) is 0.333; in the assay with Obatoclax + Phenformin (first compound 1 µM), 0.266.

In the case of Calu-6, the relative viability came to 0.98 in assay [1] (first compound 0.08 µM); 0.997 in assay [1] (first compound 0.253 µM); 0.883 in assay [1] (first compound 0.8 µM); 0.441 in assay [1] (first compound 2.53 µM); 0.158 in assay [1] (first compound 8 µM); 0.901 with Obatoclax + Foretinib (first compound 0.01 µM). Moreover, the relative viability turned out to be 0.739 in the assay with Obatoclax + Foretinib (first compound 0.03162 µM), 0.927 with Obatoclax + Foretinib (first compound 0.1 µM), 0.919 in the assay with Obatoclax + Foretinib (first compound 0.3162 µM) and 0.321 with Obatoclax + Foretinib (first compound 1 µM).
